Data taken from US20220395496A1 (Hoffmann-La Roche Inc., priority 2019, published 2022).

Legend:
human TLR9 = biological target: T1, human TLR9 (Homo sapiens, UniProt Q9NR96); assay: HEK293-Blue-hTLR-9 cells assay (SEAP reporter, ODN2006 stimulation); format: cell-based; conditions: HEK293-Blue-hTLR9 cells, ODN2006, 20 hrs
T1 sequence (Q9NR96 26-1032): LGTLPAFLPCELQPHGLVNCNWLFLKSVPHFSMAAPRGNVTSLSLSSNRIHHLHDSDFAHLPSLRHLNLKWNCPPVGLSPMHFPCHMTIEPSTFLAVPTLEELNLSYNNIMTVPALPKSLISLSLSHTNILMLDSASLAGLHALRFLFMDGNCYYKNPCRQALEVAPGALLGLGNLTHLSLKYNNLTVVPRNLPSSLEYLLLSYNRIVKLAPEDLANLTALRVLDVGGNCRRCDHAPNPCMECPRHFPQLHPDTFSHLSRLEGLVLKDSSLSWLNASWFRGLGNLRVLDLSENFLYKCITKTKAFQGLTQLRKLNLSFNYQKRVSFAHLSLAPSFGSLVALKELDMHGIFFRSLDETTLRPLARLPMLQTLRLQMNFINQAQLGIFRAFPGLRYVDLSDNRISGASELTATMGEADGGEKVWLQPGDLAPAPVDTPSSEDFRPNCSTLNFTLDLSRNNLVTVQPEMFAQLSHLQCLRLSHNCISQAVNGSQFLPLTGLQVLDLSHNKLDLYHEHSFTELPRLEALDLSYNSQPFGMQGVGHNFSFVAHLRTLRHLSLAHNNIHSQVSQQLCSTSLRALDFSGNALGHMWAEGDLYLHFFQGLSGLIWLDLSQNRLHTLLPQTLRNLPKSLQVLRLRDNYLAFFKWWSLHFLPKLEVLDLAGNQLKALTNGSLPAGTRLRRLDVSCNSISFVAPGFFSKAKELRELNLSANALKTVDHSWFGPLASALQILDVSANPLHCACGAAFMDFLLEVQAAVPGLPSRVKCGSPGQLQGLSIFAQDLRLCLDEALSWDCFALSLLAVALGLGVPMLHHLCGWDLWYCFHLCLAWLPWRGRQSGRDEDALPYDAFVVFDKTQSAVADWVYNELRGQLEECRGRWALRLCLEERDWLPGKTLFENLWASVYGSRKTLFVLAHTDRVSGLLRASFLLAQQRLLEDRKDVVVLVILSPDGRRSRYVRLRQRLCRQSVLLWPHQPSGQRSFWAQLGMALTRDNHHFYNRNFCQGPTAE
Method: The following tests were carried out in order to determine the activity of the compounds of this invention in HEK293-Blue-hTLR-7/8/9 cells assay.
HEK293-Blue-hTLR-9 Cells Assay:
A stable HEK293-Blue-hTLR-9 cell line was purchased from InvivoGen (Cat. #: hkb-htlr9, San Diego, Calif., USA). These cells were originally designed for studying the stimulation of human TLR9 by monitoring the activation of NF-κB. A SEAP (secreted embryonic alkaline phosphatase) reporter gene was placed under the control of the IFN-β minimal promoter fused to five NF-κB and AP-1-binding sites. The SEAP was induced by activating NF-κB and AP-1 via stimulating HEK-Blue hTLR9 cells with TLR9 ligands. Therefore the reporter expression was declined by TLR9 antagonist under the stimulation of a ligand, such as ODN2006 (Cat. #: tlr1-2006-1, Invivogen, San Diego, Calif., USA), for incubation of 20 hrs. The cell culture supernatant SEAP reporter activity was determined using QUANTI-Blue™ kit (Cat. #: rep-qb1, Invivogen, San Diego, Calif., USA) at a wavelength of 640 nm, a detection medium that turns purple or blue in the presence of alkaline phosphatase.
HEK293-Blue-hTLR9 cells were incubated at a density of 250,000˜450,000 cells/mL in a volume of 170 μL in a 96-well plate in Dulbecco's Modified Eagle's medium (DMEM) containing 4.5 g/L glucose, 50 U/mL penicillin, […], 2 mM L-glutamine, 10% (v/v) heat-inactivated fetal bovine serum with addition of 20 μL test compound in a serial dilution in the presence of final DMSO at 1% and 10 μL of 20 uM ODN2006 in above DMEM, perform incubation under 37° C. in a CO2 incubator for 20 hrs. Then 20 μL of the supernatant from each well was incubated with 180 μL Quanti-blue substrate solution at 37° C. for 2 hrs and the absorbance was read at 620˜655 nm using a spectrophotometer. The signalling pathway that TLR9 activation leads to downstream NF-κB activation has been widely accepted, and therefore similar reporter assay was modified for evaluating TLR9 antagonist.

[1] = Human microsome stability assay; format: in vitro ADME; conditions: human liver microsomes, 1 μM test compound, 0.5 mg/mL protein, 37° C., pH 7.4
Method: Human Microsome Stability Assay
The human microsomal stability assay is used for early assessment of metabolic stability of a test compound in human liver microsomes. Compounds with high metabolic stability are considered to be desirable as they can provide favorable in vivo PK profiles and thus sufficient exposure in the targeted tissues or organs
Human liver microsomes (Cat. NO.: 452117, Corning, USA; Cat. NO.: H2610, Xenotech, USA) were preincubated with test compound for 10 minutes at 37° C. in 100 mM potassium phosphate buffer, pH 7.4. The reactions were initiated by adding NADPH regenerating system. The final incubation mixtures contained 1 μM test compound, 0.5 mg/mL liver microsomal protein, 1 mM MgCl2, 1 mM NADP, 1 unit/mL isocitric dehydrogenase and 6 mM isocitric acid in 100 mM potassium phosphate buffer, pH 7.4. After incubation times of 0, 3, 6, 9, 15 and 30 minutes at 37° C., 300 μL of cold acetonitrile (including internal standard) was added to 100 μL incubation mixture to terminate the reaction. Following precipitation and centrifugation, the amount of compound remaining in the samples were determined by LC-MS/MS. Controls of no NADPH regenerating system at zero and 30 minutes were also prepared and analyzed.

SMILES | IC50 (human TLR9) [µM] | HLM [1] [L/h/kg]
C[C@H]1C[C@@H](N2Cc3cc(N4CCNCC4)cnc3C2)CN(c2ccc(C#N)c3ncccc23)C1 [Example 23, 5-[(3S,5R)-3-methyl-5-(3-piperazin-1-yl-5,7-dihydropyrrolo[3,4-b]pyridin-6-yl)-1-piperidyl]quinoline-8-carbonitrile] | 0.092 | 0.438
C[C@H]1C[C@@H](NCc2ccc(N3CCNCC3)cc2)CN(c2ccc(C#N)c3ncccc23)C1 [Example 1, 5-[(3S,5R)-3-methyl-5-[(4-piperazin-1-ylphenyl)methylamino]1-piperidyl]quinoline-8-carbonitrile] | 0.055 | 0.438
C[C@H]1C[C@@H](N2Cc3ccccc3C2)CN(c2ccc(C#N)c3ncccc23)C1 [Example R2, reference compound] | 8.66 | 1.1
C[C@H]1C[C@@H](NCc2ccc(C3CCNCC3)cc2)CN(c2ccc(C#N)c3ncccc23)C1 [Example 2, 5-[(3S,5R)-3-methyl-5-[[4-(4-piperidyl)phenyl]methylamino]-1-piperidyl]quinoline-8-carbonitrile] | 0.075 | 0.42
C[C@H]1C[C@@H](NCc2cnc(N3CCNCC3)nc2)CN(c2ccc(C#N)c3ncccc23)C1 [Example 17, 5-[(3S,5R)-3-methyl-5-[(2-piperazin-1-ylpyrimidin-5-yl)methylamino]-1-piperidyl]quinoline-8-carbonitrile] | 0.06 | 0.408
C[C@H]1C[C@@H](NCc2ccccc2)CN(c2ccc(C#N)c3ncccc23)C1 [Example R1, reference compound] | 1.87 | 1.04
C[C@H]1C[C@@H](N2Cc3ccc(N4CCNCC4)cc3C2)CN(c2ccc(C#N)c3ncccc23)C1 [Example 12, 5-[(3S,5R)-3-methyl-5-(5-piperazin-1-ylisoindolin-2-yl)-1-piperidyl]quinoline-8-carbonitrile] | 0.073 | 0.372
C[C@H]1C[C@@H](NCc2ccc(N3CCNCC3)nc2)CN(c2ccc(C#N)c3ncccc23)C1 [Example 10] | 0.068 | 0.444
C[C@H]1C[C@@H](NCc2ccc(N3CCNCC3)cc2)CN(c2ccc(C#N)n3nccc23)C1 [Example 21, 4-[(3S,5R)-3-methyl-5-[(4-piperazin-1-ylphenyl)methylamino]-1-piperidyl]pyrazolo[1,5-a]pyridine-7-carbonitrile] | 0.094 | 0.372
